Like-named read-outs stand apart in the source and are kept apart here.
Legend:
[1] = standard for 1O2 generation; cited from earlier work
[2] = Recombinant ZEGFR:1907/FAPdL5** probes binding to malachite green; settings: for Kd / kon (*10^6M^−1S^−1): binding to malachite green; for Em (nm) / Ex (nm): probe with MG
Description: N and C-terminal fusions were evaluated, as well as a single FAP flanked by two affibodies for their properties to bind and activate MG-fluorogens as well as their binding to target receptors on cultured cells.
Characterization of recombinant probes affibody ZEGFR:1907 (A) and FAPdL5** (F) binding to malachite green.

[3] = Absorbance of free fluorogens; format: physicochemical; settings: for x band abs max (nm) / y band abs max (nm) / λAbs (nm) (Fluorogen): free fluorogen; for ε (10^4 M^−1cm^−1): second value in parentheses not explained
dL5 [4] = assay: Fluorescence excitation/emission of fluorogen bound to dL5; format: physicochemical; settings: for λem (nm) / λex (nm): FAP-fluorogen complex; for +dL5 fluor ex (nm): main value
dL5 [5] = assay: KD measurement of fluorogen-dL5; settings: fluorogen binding to dL5
Description: (§1) FIGS. 7A-7C: FIG. 7A) KD measurement of MG-dL5 and MG2I-dL5, FIG. 7B) absorption spectra of 1 μM MG2I and MG2I with 5 μM dL5 (shorter wavelength absorption peak), FIG. 7C): fluorescence quantum yield measurement of MG2I-dL5 (squares) using Cy5 as standard (circles).
The iodination effect produces a 22 nm bathochromic shift of the x band of free MG while maintaining the FAP-fluorogen interactions. The iodination also renders the excitation maximum of MG2I-dL5 to 666 nm (compare to MG-dL5 at 633 nm), into the near infrared range (Table 1). FIGS. 7A-7C depict (FIG. 7A) KD measurement of MG-dL5 and MG2I-dL5, (FIG. 7B) absorption spectra of 1 μM MG2I and MG2I with 5 μM dL5 (shorter wavelength absorption peak), and (FIG. 7C) fluorescence quantum yield measurement of MG2I-dL5 (squares) using Cy5 as standard (circles).

dL5 [6] = assay: Fluorescence quantum yield using Cy5 as standard; format: physicochemical; settings: fluorescence quantum yield of FAP-fluorogen, PBS7.4
Description: as §1
The 3, 5-diiodo-4-hydroxybenzaldehyde, anthracene-9, 10-dipropionic acid disodium salt ADPA, were purchased from VWR international and Sigma-Aldrich, tetrasulfonated aluminum phthalocyanine AlPcS4 from frontier scientific, PEG-catalase, PEG-SOD, hoechst dye 33342, live/dead cell viability/cytotoxicity kit L-3224 and dihydroethidium (hydroethidine) D11347 were from Molecular Probes. Basic media was from Invitrogen. H NMR and C NMR data are recorded from Bruker Avance™ 300 MHz and 500 MHz. Mass spectra are obtained from Thermo-Fisher LCQ ESI/APCI Ion Trap. Final products are purified by silica, neutral alumina and reverse-phase chromatography, purity were tested by UPLC. Raw absorbance values of respective free dyes and dye-FAP complex were measured on a PerkinElmer Lambda45 spectrophotometer. Fluorogenic enhancement was measured in 96 well microplates on a Tecan Safire2 reader. Quantum yields were determined by comparing integrated spectra of MG2I-dL5 complexes with Cy5 in PBS7.4 on a Quantamaster monochromator fluorimeter (Photon Technology International).

[7] = Singlet oxygen quantum yield by ADPA bleaching, AlPcS4 standard; format: physicochemical; settings: singlet oxygen quantum yield of FAP-fluorogen
Description: Determination of singlet oxygen quantum yield: PBS 7.4 solution contains 0.1 mM ADPA and optically matched samples are illuminated from a 660 nm LED source, at different time point, its fluorescence decrease at 374/402 nm was recorded, the data was then fitted into a linear plot, the ψΔ was then calculated from the slopes using the equation below.
To test the two-component FAP photosensitizer ability to generate singlet oxygen, anthracene-9, 10-dipropionic acid (ADPA), a commonly used singlet oxygen scavenger, was used. This was done by monitoring the fluorescence disappearance of ADPA at 374/402 nm. Aluminum phthalocyanine tetrasulfonate (AlPcS4) was used as the standard for the measurement of ^1O2 generation (ψΔ=0.34). Optically matched solutions of MG2I-dL5 and AlPcS4 at 660 nm are compared and the singlet oxygen quantum yield of the two-component FAP photosensitizer is estimated to be 0.13 (FIG. 8). […] This confirmed the specific generation of singlet oxygen from the complex. Importantly, both the fluorescent quantum yield and the singlet oxygen quantum yield of free dyes are not detectable under normal excitation conditions, due to the very short excited state lifetime (<1 […]). […] Moreover, with near infrared excitation, this genetically encoded complex is accessible for a range of tumors and can also be used as tool for tumor visualization with fair fluorescence.

wild-type HEK cells = format: cell-based
Description: (§2) FAP-conjugated HER1 affibody was used to target EGFR over-expressing tumor cells A431 in cell cultures mixed with wild-type HEK cells. 250 nM affiFAP was first added to label A431 cells, followed by 250 nM MG2I/MG. […] It is shown that the tumor cells need to be targeted first by the HER1-dL5 affibody, and become accessible to photosentisization only after MG2I is added and bound to the affiFAP. […] Thus, by controlling the specific generation of singlet oxygen on the tumor site, we can eliminate the nonspecific damage to normal cells. […] This improvement to the current state-of-the-art photodynamic therapy will be of great utility, for example with the methods and modularity described herein.

[8] = tested on: EGFR over-expressing tumor cells A431; assay: Selective cancer cell killing, A431 mixed with wild-type HEK; format: cell-based; settings: 250 nM affiFAP (FAP-conjugated HER1 affibody) then 250 nM dye
Description: AffiFAP/FAP was added first and allow cell targeting for 30 minutes, MG2I/MG-ester was then added and incubated for another 30 minutes (No washing is needed in the process). After 1 min illumination (60× objective, 2.43 W/cm^2), Dead/Live working solution was used to replace the cell culture medium. Two-color viability fluorescence assay was performed after 1 hr staining
as §2

SKBR3 cancer cells = assay: Selective killing of SKBR3 cancer cells; format: cell-based; settings: 100 nM HER2 conjugated dL5 then 100 nM MG2I
Description: 100 nM HER2 conjugated dL5 was first added to the cells following by 100 nM MG2I.
as §2

[9] = tested on: cardiac function of zebrafish larvae; assay: Photo-ablation of cardiac function of larval zebrafish; format: in vivo; settings: 500 nM fluorogen 3 hours
From the text: MG2I-FAP induced photo-ablation of cardiac function of transgenic zebrafish. […] In both control groups, development proceeded normally. Scale Bar=1000 μm and applied to all images.
First, transgenic zebrafish lines were produced that expressed a cytoplasmic FAP-mCerulean3 (FAP-mCer3) tandem protein under control of the heart-specific myosin light chain 7 (my17, also known as cmlc2) promoter, Tg(my17: FAP-mCer3). […] FIG. 19 are photomicrographs of zebrafish larvae as described above. White denotes the presence of cytoplasmic FAP-mCerulean3 in live cells.

cells = assay: Toxicity of free MG2I to cells; format: cell-based
[10] = tested on: cell surface EGFR (A431 cells); assay: Cell surface EGFR labeling by ZEGFR:1907 fusion probes on A431 cells; format: binding, human
Description: The labeling of cell surface EGFR by ZEGFR:1907 fusion probes was tested with A431 cells, a cell line that expressed EGFR at high levels, ˜2000000/cell. […] By equilibrium binding fluorescence, the cell surface dissociation constant was estimated to be 122±16 nM for AF, 101±17 nM for FA and 37±6 nM for AFA.

[11] = tested on: HEK cells transfected to express FAP
Description: Dead/Live cell viability assay: 400 nM dye (MG/MG-2I) was pre-complex with cells for 30 mins. After illumination, the buffer was replaced with 2 μM calcein AM and 4 μM EthD-1 working solution. After 30 min incubation at room temperature, the two-color fluorescence cell viability test was conducted with the cells.
Cell killing experiment and cell death count: MG/MG2I was added to the cells 30 minutes before illumination (for A431 and SKBR3 cells, affibody conjugated FAP was added 1 hour prior to illumination). Microscope and light box are used as illumination source, different light dose are achieved by changing of light intensity or illumination time. For death cell counting, the medium was replaced with PBS containing 1 uM propidium iodide and 8 uM Hoechst right after illumination. After 30 min incubation, cells were counted and the death cell ratio is determined by the ratio of PI to Hoechst.
The light induced cytotoxicity of two-component FAP photosensitizer on HEK cells, which were transfected to express FAP on cell surface, was tested. 400 nM MG2I/MG was added to the cell medium 30 minutes prior to illumination; 1 minute of continuous red light illumination from a confocal microscope was applied to cells (40× objective, 640 nm excitation, 0.76 W/cm^2).
The cause of MG2I-dL5 induced cell cytotoxicity was further delineated by adding different ROS quenchers to the solutions.

[12] = transgenic Tg(my17: FAP-mCer3), 48 hpf, 12 minutes 659 nm 242 mW/cm^2

Aluminum phthalocyanine tetrasulfonate [AlPcS4]
ψΔ of standard [1]: 0.34

affibody: affibody ZEGFR:1907 alone (SEQ ID NO: 18)
fluorescence activation or fluorogen binding by affibody alone [2]: No detectable fluorescence activation or fluorogen binding

Methylium, bis[4-(dimethylamino)phenyl](4-(3-carboethoxypropyl)-3,5-diiodo-phenyl)-chloride [MG2I]
x band abs max (nm) [3]: 628 nm
y band abs max (nm) [3]: 440 nm
λAbs (nm) (Fluorogen) [3]: 628 nm
bathochromic shift of the x band relative to free MG ([3]; iodination effect): 22 nm
ε (10^4 M^−1cm^−1) [3]: 10.1(9.02) 10^4 M^−1cm^−1
λem (nm) (dL5 [4]): 693 nm
λex (nm) (dL5 [4]): 666 nm
+dL5 fluor em (nm) (dL5 [4]; bound to dL5): 693 nm
+dL5 fluor ex (nm) (dL5 [4]; bound to dL5): 666 nm
Kd (dL5 [5]): 0.073 nM
ΦF (dL5 [6]): 0.037
ΦΔ [7]: 0.13
light induced cytotoxicity (wild-type HEK cells): no observed light-induced cytotoxicity
killing of A431 cells upon illumination [8]: only the EGFR1-expressing tumor cells were killed
killing of SKBR3 cells (SKBR3 cancer cells): selective killing
heart function immediately after illumination [9, 12]: no sign of heart beat or blood circulation
heart function immediately after illumination ([9]; wild-type zebrafish, 12 minutes 659 nm): normal
toxicity to cells (cells): no toxicity to cells

CCOC(=O)CCCOc1ccc(C(=C2C=CC(=[N+](C)C)C=C2)c2ccc(N(C)C)cc2)cc1 [MG, reference compound]
x band abs max (nm) [3]: 606 nm
y band abs max (nm) [3]: 466 nm
λAbs (nm) (Fluorogen) [3]: 606 nm
ε (10^4 M^−1cm^−1) [3]: 10.3(9.18) 10^4 M^−1cm^−1
λem (nm) (dL5 [4]): 668 nm
λex (nm) (dL5 [4]): 633 nm
+dL5 fluor em (nm) (dL5 [4]; bound to dL5): 668 nm
+dL5 fluor ex (nm) (dL5 [4]; bound to dL5): 636 nm
+dL5 fluor ex (nm), value in parentheses (dL5 [4]; bound to dL5, second (minor) excitation peak printed in parentheses): 482 nm
Kd (dL5 [5]): 0.005 nM
ΦF (dL5 [6]): 0.123
ΦΔ [7]: <0.005
heart function immediately after illumination [9, 12]: normal

AF: fusion of affibody ZEGFR:1907 (A) and FAPdL5** (F)
Kd [2]: 0.43 ± 0.12 nM
kon (*10^6M^−1S^−1) [2]: 1.05 *10^6M^−1S^−1
emission peak ([2]; in the presence of MG): 664 nm
major excitation peak ([2]; in the presence of MG): 636 nm
minor excitation peak ([2]; in the presence of MG): 480 nm
Em (nm) [2]: 664 nm
Ex (nm) [2]: 634 nm
cell surface labeling, live-cell imaging [10]: clear cell surface labeling

AFA: single FAPdL5** flanked by two ZEGFR:1907 affibodies
Kd [2]: 0.53 ± 0.11 nM
kon (*10^6M^−1S^−1) [2]: 1.02 *10^6M^−1S^−1
emission peak ([2]; in the presence of MG): 664 nm
fluorescence intensity compared to F and AF ([2]; in the presence of MG): enhanced fluorescence intensity
major excitation peak ([2]; in the presence of MG): 636 nm
minor excitation peak ([2]; in the presence of MG): 480 nm
Em (nm) [2]: 666 nm
Ex (nm) [2]: 634 nm
cell surface labeling, live-cell imaging [10]: clear cell surface labeling

[N-]=[N+]=[N-] [sodium azide, reference compound]
inhibition of MG2I-dL5 induced cytotoxicity by ROS quencher ([11]; concentrations higher than 10 mM): totally inhibited

B1: catalase: ROS quencher enzyme (protein, UniProt P00432 2-527, looked up)
Catalase: ADNRDPASDQMKHWKEQRAAQKPDVLTTGGGNPVGDKLNSLTVGPRGPLLVQDVVFTDEMAHFDRERIPERVVHAKGAGAFGYFEVTHDITRYSKAKVFEHIGKRTPIAVRFSTVAGESGSADTVRDPRGFAVKFYTEDGNWDLVGNNTPIFFIRDALLFPSFIHSQKRNPQTHLKDPDMVWDFWSLRPESLHQVSFLFSDRGIPDGHRHMNGYGSHTFKLVNANGEAVYCKFHYKTDQGIKNLSVEDAARLAHEDPDYGLRDLFNAIATGNYPSWTLYIQVMTFSEAEIFPFNPFDLTKVWPHGDYPLIPVGKLVLNRNPVNYFAEVEQLAFDPSNMPPGIEPSPDKMLQGRLFAYPDTHRHRLGPNYLQIPVNCPYRARVANYQRDGPMCMMDNQGGAPNYYPNSFSAPEHQPSALEHRTHFSGDVQRFNSANDDNVTQVRTFYLKVLNEEQRKRLCENIAGHLKDAQLFIQKKAVKNFSDVHPEYGSRIQALLDKYNEEKPKNAVHTYVQHGSHLSAREKANL
modifications: PEG
inhibition of MG2I-dL5 induced cytotoxicity by ROS quencher ([11]; up to 1000 U/mL): very little effect in rescuing cell death

Source: patent US10946098B2, “Activatable two-component photosensitizers” (Carnegie Mellon University, priority 2014, dated 2021)
